# pKd: −log10 of the molar value.
# Target: T1, RING1B-BMI1 (Homo sapiens, UniProt Q99496)
# T1 sequence (Q99496 1-336): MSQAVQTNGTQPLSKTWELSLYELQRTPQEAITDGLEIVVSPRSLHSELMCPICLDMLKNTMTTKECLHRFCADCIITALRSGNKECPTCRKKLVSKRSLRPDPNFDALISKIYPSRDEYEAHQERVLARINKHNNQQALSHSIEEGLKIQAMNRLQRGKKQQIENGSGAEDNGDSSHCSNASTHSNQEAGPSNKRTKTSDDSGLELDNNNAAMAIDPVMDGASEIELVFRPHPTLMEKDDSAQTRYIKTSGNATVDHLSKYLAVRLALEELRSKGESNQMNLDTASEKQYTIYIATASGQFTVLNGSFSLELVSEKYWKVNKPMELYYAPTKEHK
# T1 sequence (P35226 1-326 partner): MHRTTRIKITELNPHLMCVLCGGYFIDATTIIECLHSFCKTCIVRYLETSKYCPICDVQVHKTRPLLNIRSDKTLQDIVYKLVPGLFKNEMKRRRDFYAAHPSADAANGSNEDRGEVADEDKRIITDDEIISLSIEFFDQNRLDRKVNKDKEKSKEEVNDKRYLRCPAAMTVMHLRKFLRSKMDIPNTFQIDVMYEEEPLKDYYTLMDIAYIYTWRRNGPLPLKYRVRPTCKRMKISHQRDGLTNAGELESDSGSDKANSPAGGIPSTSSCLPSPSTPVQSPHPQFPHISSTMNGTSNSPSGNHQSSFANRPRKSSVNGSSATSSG
# Assay: KD classes of Table A (direct binding to Ring1B-Bmi1)
# Conditions: class given in Table A
row,pKd,Structure (SMILES)
1,> 4.70,"CC(C)c1c(-c2cc(F)cc3[nH]ccc23)[nH]c(C(=O)O)c1-c1c[nH]c2ccccc12 [compound 203, 5-(6-fluoro-1H-indol-4-yl)-3-(1H-indol-3-yl)-4-isopropyl-1H-pyrrole-2-carboxylic acid]"
2,> 4.70,COCc1ccc2[nH]ccc2c1-c1c(C(=O)O)[nH]c(-c2cc(F)cc3[nH]ccc23)c1C(C)C [compound 237]
3,< 4.00,NCCn1ccc2c(-c3ccc(C(=O)O)[nH]3)cccc21 [compound 153]
4,> 4.70,CC(C)c1c(-c2cc(F)cc3[nH]ccc23)[nH]c(C(=O)O)c1-c1c(Cl)ccc2[nH]c(C(=O)O)cc12 [compound 53]
5,> 4.70,CC(C)c1c(-c2cc(F)cc3[nH]ccc23)[nH]c(C(=O)O)c1-c1cc(OC2CCC2)cc2[nH]ccc12 [compound 235]
6,> 4.70,CC(C)c1c(-c2cccc3[nH]ccc23)[nH]c(C(=O)O)c1-c1cc([N+](=O)[O-])c(O)cc1Cl [compound 4]
7,> 4.70,COc1cc(-c2[nH]c(C(=O)O)c(-c3c(Cl)ccc4[nH]ccc34)c2C(C)C)c2cc[nH]c2c1 [compound 11]
8,> 4.70,CC(C)c1c(-c2cc(F)cc3[nH]ccc23)[nH]c(S(N)(=O)=O)c1-c1cccc2[nH]ccc12 [compound 217]
9,> 4.70,CC(CF)c1c(-c2cccc3[nH]ccc23)[nH]c(C(=O)O)c1-c1cccc2[nH]ccc12 (stereo not shown) [compound 32]
10,> 4.70,CC(C)c1c(-c2cc(F)cc3[nH]ccc23)[nH]c(CCC(=O)O)c1-c1cccc2[nH]ccc12 [compound 216]
11,> 4.70,CC(C)c1c(-c2cc(F)cc3[nH]ccc23)[nH]c(CCS(N)(=O)=O)c1-c1cccc2[nH]ccc12 [compound 221]
12,< 4.00,COC(=O)c1ccc(-c2ccccc2)[nH]1 [compound 158]
13,> 4.70,CC(C)c1c(-c2cc(F)cc3[nH]ccc23)[nH]c(C(=O)O)c1-c1c(F)cnc2[nH]ccc12 [compound 246]
14,> 4.70,CC(C)c1c(-c2cc(F)cc3[nH]ccc23)[nH]c(C(=O)O)c1-c1cccc2[nH]c(CS(N)(=O)=O)cc12 [compound 229]
15,> 4.70,CC(CO)c1c(-c2cccc3[nH]ccc23)[nH]c(C(=O)O)c1-c1cccc2[nH]ccc12 (stereo not shown) [compound 31]
16,> 4.70,CCC(C)c1c(-c2cccc3[nH]ccc23)[nH]c(C(=O)O)c1-c1cccc2[nH]ccc12 (stereo not shown) [compound 73]
17,> 4.70,CC(C)c1c(-c2cc(F)cc3[nH]ccc23)[nH]c(C(=O)O)c1-c1ccc2c(c1)OCCO2 [compound 61]
18,< 4.00,NC(=O)c1ccc(-c2cccc3[nH]ccc23)[nH]1 [compound 145]
19,< 4.00,Cc1cc(-c2cccc3c2ccn3C)[nH]c1C(=O)O [compound 117]
20,> 4.70,CC(C)c1c(-c2cc(F)cc3[nH]ccc23)[nH]c(C(=O)O)c1-c1cccc2nc[nH]c12 [compound 206]
21,< 4.00,O=C(O)c1ccc(-c2cccc(O)c2)[nH]1 [compound 156]
22,> 4.70,CC(C)c1c(-c2cc(F)cc3[nH]ccc23)[nH]c(C(=O)O)c1-c1cc(C(=O)NCc2nccs2)cc2[nH]ccc12 [compound 200]
23,> 4.70,CCC(C)c1c(-c2cc(F)cc3[nH]ccc23)[nH]c(C(=O)O)c1-c1cc(OC)cc2[nH]c(CO)cc12 (stereo not shown) [compound 195]

row,pKd,Structure (SMILES)
1,> 4.70,Cc1ccc2[nH]ccc2c1-c1c(C(=O)O)[nH]c(-c2cc(F)cc3[nH]ccc23)c1C(C)C [compound 241]
2,> 4.70,CC(C)c1c(-c2cc(F)cc3[nH]ccc23)[nH]c(CS(C)(=O)=O)c1-c1cccc2[nH]ccc12 [compound 220]
3,> 4.70,CC(C)c1c(-c2cc(F)cc3[nH]ccc23)[nH]c(C(=O)O)c1-c1cccc2scnc12 [compound 172]
4,> 4.70,"COc1cccc(-c2c(C(=O)O)[nH]c(-c3cc(F)cc4[nH]ccc34)c2C(C)C)c1Cl [compound 57, 3-(2-chloro-3-methoxyphenyl)-5-(6-fluoro-1H-indol-4-yl)-4-isopropyl-1H-pyrrole-2-carboxylic acid]"
5,> 4.70,O=C(O)c1[nH]c(-c2cccc3[nH]ccc23)c(C2CC2)c1-c1cccc2[nH]ccc12 [compound 29]
6,> 4.70,CC(C)c1c(-c2cc(F)cc3[nH]ccc23)[nH]c(C(=O)O)c1-c1cccc2c1ccn2CCS(N)(=O)=O [compound 266]
7,> 4.70,CC(C)c1c(-c2cc(F)cc3[nH]ccc23)[nH]c(C(=O)O)c1-c1ccnc2[nH]c(-c3ccccc3)cc12 [compound 251]
8,< 4.00,O=C(O)c1ccc(-c2ccccc2Oc2ccccc2)[nH]1 [compound 136]
9,< 4.00,O=C(O)c1ccc(-c2cccc3[nH]ncc23)[nH]1 [compound 126]
10,> 4.70,CC(C)c1c(-c2cc(F)cc3[nH]ccc23)[nH]c(C(N)=O)c1-c1cccc2[nH]c(C(=O)O)cc12 [compound 191]
11,> 4.70,CCc1ccc2[nH]ccc2c1-c1c(C(=O)O)[nH]c(-c2cc(F)cc3[nH]ccc23)c1C(C)C [compound 242]
12,< 4.00,O=C(O)c1ccc(-c2ccccc2)s1 [compound 152]
13,< 4.00,Cn1c(C(=O)O)ccc1-c1cccc2[nH]ccc12 [compound 123]
14,> 4.70,Cc1c[nH]c2cccc(-c3[nH]c(C(=O)O)c(-c4c(Cl)ccc5[nH]ccc45)c3C(C)C)c12 [compound 26]
15,> 4.70,CC(C)c1c(-c2cc(F)cc3[nH]ccc23)[nH]c(C(=O)O)c1-c1cccc2[nH]c(C(N)=O)cc12 [compound 190]
16,> 4.70,Cc1cc(-c2[nH]c(C(=O)O)c(-c3c(Cl)ccc4[nH]ccc34)c2C(C)C)c2cc[nH]c2c1 [compound 8]
17,< 4.00,O=C(O)c1ccc(-c2cccc(OCC3CC3)c2)[nH]1 [compound 131]
18,4.00 to 4.30,CCc1c(-c2cccc3[nH]ccc23)[nH]c(C(=O)O)c1-c1cccc(Oc2ccccc2)c1 [compound 97]
19,> 4.70,CC(C)c1c(-c2cc(F)cc3[nH]ccc23)[nH]c(C(=O)O)c1-c1cccc2c1ccn2CCS(C)(=O)=O [compound 267]
20,> 4.70,CC(C)c1c(-c2cc(F)cc3[nH]ccc23)[nH]c(C(=O)O)c1-c1cccc2ncoc12 [compound 205]
21,> 4.70,CC(C)c1c(-c2cc(F)cc3[nH]ccc23)[nH]c(C(=O)O)c1-c1cccc2[nH]c(-c3ccno3)cc12 [compound 225]
22,> 4.70,Cc1cc(-c2c(C(=O)O)[nH]c(-c3cc(F)cc4[nH]ccc34)c2C(C)C)c2cc[nH]c2c1 [compound 51]
23,> 4.70,CC(C)c1c(-c2cc(F)cc3[nH]ccc23)[nH]c(C(=O)O)c1-c1cccc2[nH]c(CCS(N)(=O)=O)cc12 [compound 231]

row,pKd,Structure (SMILES)
1,> 4.70,CC(C)c1c(-c2cc(F)cc3[nH]ccc23)[nH]c(C(=O)O)c1-c1ccc2c3c1ccn3CCO2 [compound 213]
2,> 4.70,CC(C)c1c(-c2cc(F)cc3[nH]ccc23)[nH]c(C(=O)O)c1-c1ccc2[nH]ccc2c1 [compound 38]
3,> 4.70,CC(C)c1c(-c2cc(F)cc3[nH]ccc23)[nH]c(C(=O)O)c1-c1cccc2[nH]c(CO)cc12 [compound 189]
4,> 4.70,CCn1c(C(=O)O)c(-c2cc(OC)cc3[nH]ccc23)c(C(C)C)c1-c1cc(F)cc2[nH]ccc12 [compound 71]
5,> 4.70,CC(C)c1c(-c2ccc3[nH]ccc3c2)[nH]c(C(=O)O)c1-c1c(Cl)ccc2[nH]ccc12 [compound 181]
6,> 4.70,CC(C)c1c(-c2cc(F)cc3[nH]ccc23)[nH]c(C(=O)O)c1-c1ccnc2[nH]c(-c3nccs3)cc12 [compound 233]
7,> 4.70,CC(C)c1c(-c2cc(F)cc3[nH]ccc23)[nH]c(C(=O)O)c1-c1cc(F)cc2[nH]ccc12 [compound 36]
8,> 4.70,CC(C)c1c(-c2cccc3c(N)c[nH]c23)[nH]c(C(=O)O)c1-c1cccc2[nH]ccc12 [compound 223]
9,4.30 to 4.70,CCc1c(-c2cccc3[nH]ccc23)[nH]c(C(=O)O)c1-c1ccc(OC)cc1 [compound 87]
10,4.30 to 4.70,CCc1c(-c2cccc3[nH]ccc23)[nH]c(C(=O)O)c1-c1ccccc1 [compound 89]
11,4.00 to 4.30,Cc1c(-c2cccc3[nH]ccc23)[nH]c(C(=O)O)c1-c1ccccc1Cl [compound 93]
12,< 4.00,Cc1cc(C(=O)O)[nH]c1-c1cccc2[nH]ccc12 [compound 121]
13,> 4.70,COc1ccc(-c2c(C(=O)O)[nH]c(-c3cc(F)cc4[nH]ccc34)c2C(C)C)c(C)c1 [compound 59]
14,> 4.70,CC(C)c1c(-c2cccc3[nH]ccc23)c(C(=O)O)n2c1-c1cc(F)cc3ccn(c13)[C@@H](C)C2 [compound 271]
15,< 4.00,CCOc1cccc(-c2ccc(C(=O)O)[nH]2)c1 [compound 148]
16,> 4.70,CCc1c(-c2cccc3[nH]ccc23)[nH]c(C(=O)O)c1-c1cccc2c1ccn2CC [compound 21]
17,> 4.70,CC(C)c1c(-c2cc(F)cc3[nH]ccc23)[nH]c(C(=O)O)c1-c1cccc2ncsc12 [compound 204]
18,> 4.70,CC(C)c1c(-c2cc(F)cc3[nH]ccc23)[nH]c(C(=O)O)c1-c1cccc2[nH]ccc12 [compound 35]
19,< 4.00,O=C(O)c1ccc(-c2ccc(-c3ccccc3)cc2)s1 [compound 159]
20,> 4.70,CC(C)c1c(-c2cccc3[nH]cc(CCO)c23)[nH]c(C(=O)O)c1-c1c(Cl)ccc2[nH]ccc12 [compound 27]
21,< 4.00,CCc1c(C(=O)O)[nH]c(-c2cccc3[nH]ccc23)c1CC [compound 112]

# Source: patent publication US12466813B2, “PRC1 inhibitors and methods of treatment therewith” (The Regents of the University of Michigan, priority 2018, dated 2025)
